Source: publication PMC9694494, “Resveratrol/Hydrazone Hybrids: Synthesis and Chemopreventive Activity against Colorectal Cancer Cells” (Pharmaceutics, 2022)
Like-named read-outs stand apart in the source and are kept apart here.

Key:
HaCaT cells = assay: SRB cell viability (cytotoxicity), HaCaT; assay type: cell-based; conditions: Homo sapiens, HaCaT nonmalignant cells, read-out: IC50 ± SEM HACAT
Experimental: (§1) Human colon cancer cell lines (SW480 and SW620), together with nonmalignant cells (CHO-K1 and HaCaT) were used to study the biological activity. Cells were purchased from the European Collection of Authenticated Cell Cultures (ECACC, UK). Dulbecco’s Modified Eagle Medium (DMEM) containing heat-inactivated (56 °C) horse serum (10%), non-essential amino acids (1%) and antibiotics (penicillin/streptomycin, 1%) (Gibco Invitrogen, Carlsbad, CA, USA) was used to maintain the cells, reducing the horse serum to 3%, and, adding insulin ([…]), transferrin ([…]) and selenium (5 ng/mL) (ITS-defined medium; Gibco, Invitrogen, Carlsbad, CA, USA) for all the experiments.
(§2) The colorimetric test with Sulforhodamine B (SRB) was used to evaluate cell viability. Cell density was adjusted to seed 20.000 cells/well in 96-well tissue culture plates. Cells were first incubated for 24 h and then treated with the synthesized hybrids, the lead compounds (PIH and resveratrol), and the reference drug (5-FU) (concentrations between 0.01 and 200 µM), using DMSO (below 1%) as vehicle control. The optimum conditions were 37 °C and 5% CO2. After the end of each treatment, cold trichloroacetic acid (MERCK, 50% v/v) was added and preserved for one hour at 4 °C, to fix the cells. Then, cell proteins were stained with 0.4% (w/v) SRB (Sigma-Aldrich, St. Louis, MO, USA), and subsequently washed with acetic acid (1%) to remove unbound SRB. After air-drying, protein-bound SRB was solubilized in 10 mM Tris-base before reading the absorbance at 492 nm in a microplate reader (Mindray MR-96A). All experiments were performed at least three times.

SW480 cells = assay: SRB cell viability (cytotoxicity), SW480; assay type: cell-based, human; conditions: for Selectivity Index SI1: CHO-K1/SW480 IC50 ratio; for Selectivity Index SI2: HaCaT/SW480 IC50 ratio; for IC50: Homo sapiens, SW480, SRB, read-out: IC50 ± SEM SW480
Experimental: as §1, §2

SW620 cells = assay: SRB cell viability (cytotoxicity), SW620; assay type: cell-based, human; conditions: for Selectivity Index SI3: CHO-K1/SW620 IC50 ratio; for Selectivity Index SI4: HaCaT/SW620 IC50 ratio; for IC50: Homo sapiens, SW-620, SRB, read-out: IC50 ± SEM SW620
Experimental: as §1, §2

HCT 116 cell line = conditions: read-out: IC50 antiproliferative activity; cited from earlier work
CHO-K1 cells = assay: SRB cell viability (cytotoxicity), CHO-K1; assay type: cell-based; conditions: Cricetulus griseus, CHO-K1 nonmalignant cells, read-out: IC50 ± SEM CHO
Experimental: as §1, §2

| Structure (SMILES) | IC50 (HaCaT cells; 24 H) | Selectivity Index SI1 (SW480 cells; 24 H) | Selectivity Index SI1 (SW480 cells; 48 H) | Selectivity Index SI2 (SW480 cells; 48 H) | Selectivity Index SI3 (SW620 cells; 24 H) | Selectivity Index SI3 (SW620 cells; 48 H) | Selectivity Index SI4 (SW620 cells; 48 H) | IC50 (HCT 116 cell line) | IC50 (CHO-K1 cells; 24 H) | IC50 (CHO-K1 cells; 48 H) | IC50 (HaCaT cells; 48 H) | Selectivity Index SI2 (SW480 cells; 24 H) | IC50 (SW480 cells; 24 H) | IC50 (SW480 cells; 48 H) | Selectivity Index SI4 (SW620 cells; 24 H) | IC50 (SW620 cells; 24 H) | IC50 (SW620 cells; 48 H) | melting point |
| --- | --- | --- | --- | --- | --- | --- | --- | --- | --- | --- | --- | --- | --- | --- | --- | --- | --- | --- |
| O=c1[nH]cc(F)c(=O)[nH]1 [5-FU, 5-fluorouracil, reference compound] | > 1000 µM | 0.35 | 0.99 | 0.68 | 0.59 | 0.96 | 0.66 | 5 µM |  |  |  |  |  |  |  |  |  |  |
| COc1cccc(C(=O)N/N=C/c2c(O)cc(O)cc2/C=C/c2ccc(O)cc2)c1 [6a, N′-((E)-2,4-dihydroxy-6-((E)-4-hydroxystyryl)benzylidene)-3-methoxybenzohydrazide] | 47.5 ± 1.15 µM | 0.86 | 0.52 | 0.09 | 0.16 | 0.31 | 0.05 |  | 28.4 ± 1.48 µM | 13 ± 1.3 µM | 2.2 ± 0.2 µM | 1.44 | 33 ± 2.13 µM | 24.9 ± 2.8 µM | 0.28 | 172 ± 9 µM | 41.5 ± 1.2 µM | 248 to 250 °C |
| COc1ccc(C(=O)N/N=C/c2c(O)cc(O)cc2/C=C/c2ccc(O)cc2)cc1 [6b, N′-((E)-2,4-dihydroxy-6-((E)-4-hydroxystyryl)benzylidene)-4-methoxybenzohydrazide] | 36.9 ± 3.53 µM |  |  |  |  |  |  |  | 23.4 ± 1.83 µM | 14.4 ± 1.7 µM | 13.9 ± 0.7 µM |  | 36.1 ± 1.97 µM | 11.3 ± 2.3 µM |  | 160 ± 9.4 µM | 37.6 ± 2.9 µM |  |
| O=C(N/N=C/c1c(O)cc(O)cc1/C=C/c1ccc(O)cc1)c1ccc(F)cc1 [6c, N′-((E)-2,4-dihydroxy-6-((E)-4-hydroxystyryl)benzylidene)-4-fluorobenzohydrazide] | 32.8 ± 1.33 µM | 0.77 | 1.11 | 1.35 | 0.39 | 0.96 |  |  | 22.6 ± 2.38 µM | 12 ± 1.6 µM | 14.6 ± 0.8 µM | 1.12 | 29.2 ± 3.55 µM | 10.8 ± 2 µM | 0.57 | 57.7 ± 3.6 µM | 12.5 ± 1 µM |  |
| COc1cccc(C(=O)N/N=C/c2c(O)cc(O)cc2/C=C/c2ccc(O)cc2)c1OC [6d, N′-((E)-2,4-dihydroxy-6-((E)-4-hydroxystyryl)benzylidene)-2,3-dimethoxybenzohydrazide] | 49.7 ± 1.96 µM |  |  |  |  |  |  |  | 35.5 ± 2.36 µM | 22.4 ± 2.7 µM | 2.95 ± 0.2 µM |  | 34.8 ± 3.31 µM | 20.5 ± 1.9 µM |  | 171 ± 8.7 µM | 49.9 ± 2.1 µM |  |
| COc1ccc(OC)c(C(=O)N/N=C/c2c(O)cc(O)cc2/C=C/c2ccc(O)cc2)c1 [6f, N′-((E)-2,4-dihydroxy-6-((E)-4-hydroxystyryl)benzylidene)-2,5-dimethoxybenzohydrazide] | 42.2 ± 5.9 µM | 0.97 | 1.30 | 1.22 | 0.11 | 0.16 | 0.15 |  | 22.7 ± 2.25 µM | 15.9 ± 1.6 µM | 14.9 ± 1.3 µM | 1.80 | 23.4 ± 1.31 µM | 12.2 ± 1.2 µM | 0.21 | > 200 µM | 99.4 ± 6.9 µM | 260 to 262 °C |
| COc1ccc(C(=O)N/N=C/c2c(O)cc(O)cc2/C=C/c2ccc(O)cc2)cc1OC [6g, N′-((E)-2,4-dihydroxy-6-((E)-4-hydroxystyryl)benzylidene)-3,4-dimethoxybenzohydrazide] | 63.7 ± 5.27 µM |  |  |  |  |  |  |  | 33.2 ± 1.99 µM | 17.2 ± 2 µM | 17.7 ± 0.5 µM |  | 37 ± 2.24 µM | 20.2 ± 2.7 µM |  | 191 ± 13 µM | 40.3 ± 2.7 µM |  |
| COc1cc(OC)cc(C(=O)N/N=C/c2c(O)cc(O)cc2/C=C/c2ccc(O)cc2)c1 [6h, N′-((E)-2,4-dihydroxy-6-((E)-4-hydroxystyryl)benzylidene)-3,5-dimethoxybenzohydrazide] | 43.2 ± 4.02 µM |  |  |  |  |  |  |  | 22.8 ± 1.31 µM | 14 ± 1.2 µM | 4.5 ± 0.6 µM |  | 29.1 ± 1.31 µM | 7.2 ± 2 µM |  | 126 ± 20.9 µM | 26 ± 3.2 µM |  |
| O=C(N/N=C/c1ccccc1OCc1ccccc1)c1ccncc1 [C] |  |  |  |  |  |  |  | 3.1 µM |  |  |  |  |  |  |  |  |  |  |
| O=C(N/N=C/c1c(O)ccc2ccccc12)c1ccncc1 [D] |  |  |  |  |  |  |  | 0.29 µM |  |  |  |  |  |  |  |  |  |  |
| Cc1ncc(CO)c(/C=N/NC(=O)c2ccncc2)c1O [PIH, pyridoxal isonicotinoyl hydrazone, reference compound] | > 200 µM | 1.10 | 0.67 | 0.90 | 1.53 | 0.63 | 0.85 |  | > 200 µM | 75.3 ± 6.4 µM | 101 ± 10.8 µM | 0.86 | > 200 µM | 112 ± 5.9 µM | 1.19 | > 200 µM | 119 ± 7 µM |  |
| Oc1ccc(/C=C/c2cc(O)cc(O)c2)cc1 [RESV, resveratrol] | > 200 µM | 0.77 | 0.52 | 0.16 | 0.22 | 0.45 | 0.14 |  |  | 64 ± 8.9 µM | 20.2 ± 2.7 µM | 1.49 |  |  | 0.42 | > 200 µM |  |  |
| NC(=S)N/N=C/c1c(O)cc(O)cc1/C=C/c1ccc(O)cc1 [compound 8, 2-((E)-2,4-dihydroxy-6-((E)-4-hydroxystyryl)benzylidene)hydrazine-1-carbothioamide] | 60.1 ± 3.99 µM | 1.02 | 0.89 | 0.77 | 0.41 | 0.57 | 0.50 |  | 41.9 ± 2.83 µM | 36.7 ± 3.8 µM | 31.8 ± 1.4 µM | 1.47 | 41 ± 3.93 µM | 41.2 ± 2.3 µM | 0.59 | 102 ± 3.5 µM | 64.1 ± 2.9 µM | 242 to 244 °C |
